From patent US6130239A, “4-Alkenyl- and 4-alkynyloxindoles” (Hoffmann-La Roche Inc., priority 1999, dated 2000)
Structures can show the parent of a compound that is named as a salt.

Key:
[1] = tested on: MDA-MB-435; assay: Cell-based antiproliferative (MTT) assay, MDA-MB-435 breast carcinoma line; settings: Homo sapiens, MDA-MB-435, 120 h; 5 days post addition of test compound; mostly one experiment, average where repeated; read-out: MDA-MB435 IC50
Protocol: The estrogen receptor negative epithelial breast carcinoma line (MDA-MB-435) was purchased from American Type Cell Culture Collection (ATCC; Rockville, Md.) and was grown in the medium recommended by ATCC. For analysis of the effect of the test compounds on growth of these cells, the cells were plated at 2000 cells per well in a 96-well tissue culture plate, and were incubated overnight at 37° C. with 5% CO2. The next day, the test compounds were dissolved in 100% dimethyl sulfoxide (DMSO) to yield a 10 mM stock solution. Each compound was diluted with sterile medium to 1 mM in a sufficient quantity to yield a final concentration of 120 μM. The compounds were then serially diluted in medium with 1.2% DMSO. One-fourth final volume of the diluted compounds was transferred to 96 well plates. Test compounds were assayed in duplicate. DMSO was added to a row of "control cells" such that the final concentration of DMSO in each well was 0.3%. Wells to which no cells were added served as the "blank." Wells to which no inhibitor was added served as "no inhibitor control". The plates were returned to the incubator, and 5 days post addition of test compound, were analyzed as described below. […] MTT) was added to each well to yield a final concentration of 1 mg/mL. The plates were then incubated at 37° C. for 3 hours. The plates were centrifuged at 1000 rpm for 5 minutes prior to aspiration of the MTT-containing medium. The MTT-containing medium was then removed and 100 μL 100% ethanol was added to each well to dissolve the resulting formazan metabolite. To ensure complete dissolution, plates were shaken for 15 minutes at room temperature. Absorbencies were read in a microtiter plate reader (Molecular Dynamics) at a wavelength of 570 nm with a 650 nm reference. Percent inhibition was calculated by subtracting the absorbance of the blank (no cell) wells from all wells, then subtracting the division of the average absorbance of each test duplicate by the average of the controls from 1.00. Inhibitory concentrations (IC50) were determined from the linear regression of a plot of the logarithm of the concentration versus the percent inhibition.

[2] = target: T1, Cyclin E/CDK2 (Homo sapiens, UniProt P24941); assay: CDK2 FlashPlate Assay (inhibition of Rb phosphorylation by Cyclin E/CDK2); format: biochemical; settings: for IC50: Table IA, recombinant human Cyclin E/CDK2, Rb substrate, 25 minutes room temperature
T1 construct: made in house; host or cells: insect cells

[3] = tested on: SW480; assay: Cell-based antiproliferative (MTT) assay, SW480 colon carcinoma line; settings: Homo sapiens, SW480, 96 h; 4 days post addition of test compound
Protocol: The estrogen receptor negative epithelial breast carcinoma line (MDA-MB-435) was purchased from American Type Cell Culture Collection (ATCC; Rockville, Md.) and was grown in the medium recommended by ATCC. For analysis of the effect of the test compounds on growth of these cells, the cells were plated at 2000 cells per well in a 96-well tissue culture plate, and were incubated overnight at 37° C. with 5% CO2. The next day, the test compounds were dissolved in 100% dimethyl sulfoxide (DMSO) to yield a 10 mM stock solution. Each compound was diluted with sterile medium to 1 mM in a sufficient quantity to yield a final concentration of 120 μM. The compounds were then serially diluted in medium with 1.2% DMSO. One-fourth final volume of the diluted compounds was transferred to 96 well plates. Test compounds were assayed in duplicate. DMSO was added to a row of "control cells" such that the final concentration of DMSO in each well was 0.3%. Wells to which no cells were added served as the "blank." Wells to which no inhibitor was added served as "no inhibitor control". The plates were returned to the incubator, and 5 days post addition of test compound, were analyzed as described below.
3-(4,5-Dimethylthiazole-2-yl)-2,5-diphenyl-2H-tetrazolium bromide (thiazolyl blue; MTT) was added to each well to yield a final concentration of 1 mg/mL. The plates were then incubated at 37° C. for 3 hours. The plates were centrifuged at 1000 rpm for 5 minutes prior to aspiration of the MTT-containing medium. The MTT-containing medium was then removed and 100 μL 100% ethanol was added to each well to dissolve the resulting formazan metabolite. To ensure complete dissolution, plates were shaken for 15 minutes at room temperature. Absorbencies were read in a microtiter plate reader (Molecular Dynamics) at a wavelength of 570 nm with a 650 nm reference. Percent inhibition was calculated by subtracting the absorbance of the blank (no cell) wells from all wells, then subtracting the division of the average absorbance of each test duplicate by the average of the controls from 1.00. Inhibitory concentrations (IC50) were determined from the linear regression of a plot of the logarithm of the concentration versus the percent inhibition.
The colon carcinoma line SW480 also was obtained from the ATCC and was tested according to the same protocol provided above with the following modification: cell line SW480 was plated at 1000 cells per well and analyzed at 4 days post addition of test compound.

Structure (SMILES)	IC50 [1]	IC50 [2]	IC50 [3]	inhibition at 1 µM ([2]; Table IB, concentration ≤1.0 μM)
Cc1nc[nH]c1/C=C1\C(=O)Nc2ccc(F)c(C#CCC(C)O)c21 (racemic) [TT, rac-(Z)-1,3-Dihydro-5-fluoro-4-(4-hydroxy-1-pentynyl)-3-[(4-methyl-1H-imidazol-5-yl)methylene]-2H-indol-2-one, trifluoroacetate salt]	< 3.5 µM	< 4 µM		
CCOC(=O)C(CC#Cc1c(F)ccc2c1/C(=C/c1[nH]cnc1C)C(=O)N2)NC(C)=O (racemic) [AAA, rac-(Z)-2-(Acetylamino)-5-[5-fluoro-2,3,dihydro-3-[(4-methyl-1H-imidazol-5-yl)methylene]-2-oxo-1H-indol-4-yl]-4-pentynoic acid ethyl ester]	< 3.5 µM	< 4 µM		
CCC(N)(C#Cc1c(F)ccc2c1/C(=C/c1[nH]cnc1C)C(=O)N2)CC [CCC, (Z)-4-[3-Amino-3-ethyl-1-pentynyl]-1,3-dihydro-5-fluoro-3-[(4-methyl-1H-imidazol-5-yl)methylene]-2H-indol-2-one]			< 1 µM	
Cc1nc[nH]c1/C=C1\C(=O)Nc2ccc(F)c(C#CCN(C)C)c21 [UU, (Z)-1,3-Dihydro-4-[3-(N,N-dimethylamino)-1-propynyl]-5-fluoro-3-[(4-methyl-1H-imidazol-5-yl)methylene]-2H-indol-2-one]	< 3.5 µM	< 4 µM		
CCC(O)C#Cc1c(F)ccc2c1/C(=C/c1[nH]cnc1C)C(=O)N2 (racemic) [OO, rac-(Z)-1,3-Dihydro-5-fluoro-4-(3-hydroxy-1-pentynyl)-3-[(4-methyl-1H-imidazol-5-yl)methylene]-2H-indol-2-one]	< 3.5 µM	< 4 µM	< 1 µM	
CCN(CC)CC#Cc1c(F)ccc2c1/C(=C/c1[nH]cnc1C)C(=O)N2 [Compound BBB, (Z)-4-[3-(N,N-Diethylamino)-1-propynyl]-1,3-dihydro-5-fluoro-3-[(4-methyl-1H-imidazol-5-yl)methylene]-2H-indol-2-one]	< 3.5 µM	< 4 µM		
Cc1nc[nH]c1/C=C1\C(=O)Nc2ccc(F)c(C#CCO)c21 [QQ, (Z)-1,3-Dihydro-5-fluoro-4-(3-hydroxy-1-propynyl)-3-[(4-methyl-1H-imidazol-5-yl)methylene]-2H-indol-2-one, trifluoroacetate salt]	< 3.5 µM	< 4 µM		
Cc1nc[nH]c1/C=C1\C(=O)Nc2ccc(F)c(C#CCN3CCOCC3)c21 [XX, (Z)-1,3-Dihydro-5-fluoro-3-[(4-methyl-1H-imidazol-5-yl)methylene]-4-[3-(4-morpholinyl)-1-propynyl]-2H-indol-2-one]	< 3.5 µM	< 4 µM		
Cc1nc[nH]c1/C=C1\C(=O)Nc2ccc(F)c(C#CC(C)(C)N)c21 [VV, (Z)-4-[3-Amino-3-methyl-1-butynyl]-1,3-dihydro-5-fluoro-3-[(4-methyl-1H-imidazol-5-yl)methylene]-2H-indol-2-one]	< 3.5 µM	< 4 µM		
CCC(O)C#Cc1c([N+](=O)[O-])ccc2c1/C(=C/c1[nH]cnc1C)C(=O)N2 (racemic) [PP, rac-(Z)-1,3-Dihydro-4-(3-hydroxy-1-pentynyl)-3-[(4-methyl-1H-imidazol-5-yl)methylene]-5-nitro-2H-indol-2-one]	< 3.5 µM	< 4 µM	< 1 µM	
CNCC#Cc1c(F)ccc2c1/C(=C/c1[nH]cnc1C)C(=O)N2 [RR, (Z)-1,3-Dihydro-5-fluoro-4-[3-(N-methylamino)-1-propynyl]-3-[(4-methyl-1H-imidazol-5-yl)methylene]-2H-indol-2-one]	< 3.5 µM	< 4 µM	< 1 µM	
COC(=O)NCC#Cc1c(F)ccc2c1/C(=C/c1[nH]cnc1C)C(=O)N2 [YY, (Z)-[3-[2,3-Dihydro-5-fluoro-3-[(4-methyl-1H-imidazol-5-yl)methylene]-2-oxo-1H-indol-4-yl]-2-propynyl]carbamic acid methyl ester]	< 3.5 µM			> 90%
Cc1nc[nH]c1/C=C1\C(=O)Nc2ccc(F)c(C#CCOC(N)=O)c21 [WW, (Z)-Carbamic acid 3-[2,3-dihydro-3-[(4-methyl-1H-imidazol-5-yl)methylene]-5-fluoro-2-oxo-1H-indol-4-yl]-2-propynyl ester]	< 3.5 µM	< 4 µM		
